Values joined by “and” are separate entries in the source; they are usually repeats but may differ in a detail not shown here. Identical values can stand only once.
Assays:
BRISC–SHMT2 interaction = target: T1, BRISC–SHMT2 interaction (Homo sapiens, UniProt P46736+Q15018+Q9NXR7); assay: Dianthus spectral shift binding assay (BRISC–SHMT2); details: labelled BRISC preincubated with 100 μM compound
T1 construct: His (tag of the complex); made in house
Protocol: Site-specific labeling of His-tagged BRISC was performed using a RED-Tris-NTA second-generation labeling kit (NanoTemper Technologies) in buffer containing 25 mM HEPES pH 7.5, 150 mM NaCl, 1 mM DTT and 0.005% Tween-20. First, 100 nM His–BRISC was incubated with 25 nM RED-Tris-NTA dye and prepared according to the Nanotemper protocol. […] The reactions were carried out in 384-well Dianthus microplates (Nanotemper Technologies) with a 20-μl reaction volume. The measurements were performed using autoexcitation on a Dianthus NT.23 instrument at 25 °C using DI.Control software (version 2.1.1; Nanotemper Technologies). Data were analyzed using DI.Screening Analysis software (version 2.1.1; Nanotemper Technologies) and plotted in GraphPad Prism (version 10.1.0). KD values were determined using a GraphPad Prism built-in equation for total binding (one site).

BRISC (FL) = target: T2, BRISC (FL) (Homo sapiens, UniProt P46736+Q15018+Q9NXR7); assay: In-gel deubiquitylation assay, TAMRA-labeled K63-tetraubiquitin, BRISC; assay type: biochemical; details: 10 μM or 100 μM inhibitor
T2 construct: full-length BRISC (FL), ARISC (FL); made in house; host or cells: Spodoptera frugiperda Sf9 insect cells (MultiBac)
Protocol: The inhibitor capzimin (Merck) was diluted in 1 mM DTT and incubated for 30 min at room temperature to reduce disulfide bonds required for inhibitor activity. […] DUBs were incubated with 750 nM TAMRA-labeled K63-tetraubiquitin (LifeSensors, SI6304T) for 10 min at 30 °C. Reactions were quenched by adding 2.5 μl of 4× SDS–PAGE loading dye (240 mM Tris-HCl pH 6.8, 40% v/v glycerol, 8% w/v SDS, 0.04% w/v bromophenol blue and 5% v/v β-mercaptoethanol). The samples were resolved on 4–12% NuPAGE Bis–Tris gels (Thermo Fisher Scientific). Gels were scanned using an iBright FL 1500 (Thermo Fisher Scientific) (excitation, 515–545 nm; emission, 568–617 nm; exposure, 500 ms).

BRISC = target: T3, BRISC (Homo sapiens, UniProt P46736+Q15018+Q9NXR7); assay: BRISC DUB activity assay (IQF K63-linked diubiquitin); assay type: biochemical; details: for Mean: Fig. 1d; for Normalised V0: replicate columns
T3 construct: made in house; host or cells: Spodoptera frugiperda (Sf9) insect cells, MultiBac
Protocol: IQF assays were performed in DUB reaction buffer containing 50 mM HEPES–NaOH pH 7.0, 100 mM NaCl, 0.1 mg ml^−1 BSA, 1 mM DTT and 0.03% v/v Brij-35. […] The final concentration of BRISC WT, all BRISC mutants, HsBRISCΔLoop, MmBRISC and DrBRISCΔNΔC was 1 nM. Other enzymes were tested at the following concentrations: 5 nM ARISC (FL), 10 nM CfBRISCΔNΔC, 250 nM AMSH* (ref. [43]), 500 nM USP2 and 1 μM trypsin (Sigma, 9002-07-7). For Michaelis–Menten experiments, 1 nM BRISC with 0–1 μM IQF K63-linked diubiquitin substrate was used. Michaelis–Menten analyses and Lineweaver–Burk plots were calculated using GraphPad Prism (version 9.0).
To assess enzymatic activity, BRISC complexes were diluted to concentrations between 1 nM and 50 nM. […] Then, 20-μl enzyme reactions were carried out in 384-well black flat-bottom low-flange plates (Corning, 35373). DUB activity was measured using IQF K63-linked diubiquitin (LifeSensors, DU6303) at 50 nM. Cleaved diubiquitin was monitored by measuring fluorescence intensity (excitation, 544 nm; emission, 575 nm; dichroic mirror, 560 nm). Fluorescence intensity was measured every minute for 30 min at 30 °C. Fluorescence intensity units were plotted against time to generate a linear reaction progress curve, where the initial velocity (V0) corresponds to the gradient of the curve (typically achieved within 15 min). IC50 values were calculated using the GraphPad Prism (version 9.0) built-in dose–response equation for inhibitor concentration versus response (variable slope).

[1] = tested on: ISRE in THP-1 cells (TLR9 agonist ODN 2216); assay: THP-1 ISRE luciferase reporter, ODN 2216 stimulation; assay type: cell-based, human; details: ODN 2216 1 µM, 0.4 μM, 16 h
Protocol: (§1) THP-1 in vitro experiments
(§2) THP-1-DualTM cells (InvivoGen), derived from a human monocytic cell line, isolated from a patient with acute monocytic leukaemia, were cultured as per manufacturer’s guidance. Cells were seeded at 1x10^6 cells/mL in RPMI1640 media containing 10% fetal bovine serum (FBS), 1% penicillin-streptomycin (PS) (Gibco Laboratories) with DMSO (0.1%) (control) or in media containing JMS-175- […]
(§3) ng/mL) (Merck Life Science), ODN 2216 (1 µM) (Miltenyi Biotec), or Poly:IC (1 µg/mL) (InvivoGen).
(§4) Tofacitinib (Cambridge Biosciences) at 0.4 µM was used for comparison against a known JAK inhibitor.
(§5) Cells were centrifuged at 300 g for 5 minutes. Supernatant was removed and subjected to simultaneous study of the NF -κB pathway, by monitoring the activity of secreted alkaline phosphatase reporter (SEAP), and the IRF pathway, by assessing the activity o f a secreted Lucia luciferase using QUANTI - Blue ™ Solution and QUANTI -Luc™ 4 Lucia/Gaussia (InvivoGen), respectively, as per manufacturer’s instructions. Pelleted cells were used for FACS analysis using IFNα/β R1 APC-conjugated antibody or isotype control (Biotechne, FAB245A and IC002A), or unstained staining procedure with and without Zombie GreenTM (Biolegend). Samples were analysed using CytoFlex LX (Beckman) (50,000 live cells per condition). Median fluorescence intensity for APC channel gated on single cell live cells was analysed and compared as a percentage to control (no stimulation condition). […]

[2] = tested on: IFN-stimulated response elements (ISRE) in THP-1 cells; assay: THP-1 ISRE luciferase reporter, IFNα2 stimulation; assay type: cell-based, human
Protocol: as §1, §2, §3, §4, §5

THP-1 cells = assay: THP-1 live cell percentage; assay type: cell-based; details: male, human, 16 h, 0.4 µM
Protocol: as §1, §2, §3, §4, §5

[3] = tested on: NF-κB pathway in THP-1 cells; assay: THP-1 NF-κB pathway SEAP reporter, lipopolysaccharide stimulation; assay type: cell-based, human; details: LPS + compound, three replicates
Protocol: as §1, §2, §3, §4, §5

[4] = tested on: IFNAR1 surface levels in THP-1 cells; assay: THP-1 IFNAR1 surface levels (FACS); assay type: cell-based, human
Protocol: as §1, §2, §3, §4, §5

[5] = tested on: ISRE in THP-1 cells (TLR3 agonist polyI:C); assay: THP-1 ISRE luciferase reporter, polyI:C stimulation; assay type: cell-based, human; details: polyI:C 1 µg/mL, 0.4 μM, 16 h
Protocol: as §1, §2, §3, §4, §5

Structure (SMILES): O=C(NC1CCN(C(=O)c2c(Cl)cccc2Cl)CC1)c1n[nH]cc1NC(=O)c1c(Cl)cccc1Cl [AP-5-144]
- Ratio 670 nm/650 nm (BRISC–SHMT2 interaction; SHMT2 0.00140381 μM): 1.077 and 1.081 and 1.064
- Ratio 670 nm/650 nm (BRISC–SHMT2 interaction; SHMT2 0.00280762 μM): 1.075 and 1.068 and 1.082
- Ratio 670 nm/650 nm (BRISC–SHMT2 interaction; SHMT2 0.00561523 μM): 1.073 and 1.081 and 1.075
- Ratio 670 nm/650 nm (BRISC–SHMT2 interaction; SHMT2 0.0112305 μM): 1.064 and 1.071 and 1.065
- Ratio 670 nm/650 nm (BRISC–SHMT2 interaction; SHMT2 0.0224609 μM): 1.049 and 1.052
- Ratio 670 nm/650 nm (BRISC–SHMT2 interaction; SHMT2 0.0449219 μM): 1.026 and 1.035 and 1.037
- Ratio 670 nm/650 nm (BRISC–SHMT2 interaction; SHMT2 0.0898438 μM): 1.012 and 1.013 and 1.006
- Ratio 670 nm/650 nm (BRISC–SHMT2 interaction; SHMT2 0.179688 μM): 0.993 and 0.976 and 0.943
- Ratio 670 nm/650 nm (BRISC–SHMT2 interaction; SHMT2 0.359375 μM): 0.948 and 0.935 and 0.925
- Ratio 670 nm/650 nm (BRISC–SHMT2 interaction; SHMT2 0.71875 μM): 0.903 and 0.887 and 0.836
- Ratio 670 nm/650 nm (BRISC–SHMT2 interaction; SHMT2 1.4375 μM): 0.863 and 0.84 and 0.841
- Ratio 670 nm/650 nm (BRISC–SHMT2 interaction; SHMT2 2.875 μM): 0.823 and 0.805 and 0.806
- Ratio 670 nm/650 nm (BRISC–SHMT2 interaction; SHMT2 5.75 μM): 0.792 and 0.756 and 0.785
- Ratio 670 nm/650 nm (BRISC–SHMT2 interaction; SHMT2 11.5 μM): 0.776 and 0.777 and 0.775
- Ratio 670 nm/650 nm (BRISC–SHMT2 interaction; SHMT2 23 μM): 0.77 and 0.773 and 0.777
- Ratio 670 nm/650 nm (BRISC–SHMT2 interaction; SHMT2 46 μM): 0.768 and 0.78 and 0.777
- inhibition of BRISC cleavage of K63-linked tetraubiquitin (BRISC (FL)): did not inhibit
- Mean (BRISC; log[compound (μM)] 0.1931): 1.0068
- Mean (BRISC; log[compound (μM)] 0.4942): 1.0306
- Mean (BRISC; log[compound (μM)] 0.7959): 0.9990
- Mean (BRISC; log[compound (μM)] 1.0969): 1.0116
- Mean (BRISC; log[compound (μM)] 1.3979): 0.9713
- Mean (BRISC; log[compound (μM)] 1.6990): 1.1388
- Mean (BRISC; log[compound (μM)] 2.0000): 1.0728
- Mean (BRISC; log[compound (μM)] 2.3010): 1.1033
- Mean (BRISC; log[compound (μM)] -0.1079): 1.1343
- Mean (BRISC; log[compound (μM)] -0.4089): 1.1217
- Mean (BRISC; log[compound (μM)] -0.7212): 1.1333
- Mean (BRISC; log[compound (μM)] -1.7212): 1.0000
- inhibition of BRISC DUB activity (in words) (BRISC; IQF diubiquitin assay): did not inhibit
- Normalised V0 (BRISC; [Inhibitor] 0.013 μM): 0.9578 and 1.102 and 0.7959 and 1.072
- Normalised V0 (BRISC; [Inhibitor] 0.02 μM): 0.8824 and 1.105
- Normalised V0 (BRISC; [Inhibitor] 0.0399999 μM): 1.048 and 1.358
- Normalised V0 (BRISC; [Inhibitor] 0.0599997 μM): 0.9169 and 1.23
- Normalised V0 (BRISC; [Inhibitor] 0.0799994 μM): 1.0394 and 1.173
- Normalised V0 (BRISC; [Inhibitor] 0.119998 μM): 0.856 and 0.7489
- Normalised V0 (BRISC; [Inhibitor] 0.199996 μM): 0.9661 and 1.115
- Normalised V0 (BRISC; [Inhibitor] 0.499975 μM): 0.9387 and 1.144
- Normalised V0 (BRISC; [Inhibitor] 0.799936 μM): 0.8532 and 1.098
- Normalised V0 (BRISC; [Inhibitor] 1.25984 μM): 0.9637 and 1.032
- Normalised V0 (BRISC; [Inhibitor] 1.9996 μM): 0.7701 and 1.137
- Normalised V0 (BRISC; [Inhibitor] 3.159 μM): 0.887 and 1.055
- Normalised V0 (BRISC; [Inhibitor] 5.19739 μM): 0.7796 and 1.219
- Normalised V0 (BRISC; [Inhibitor] 7.99364 μM): 0.912 and 1.161
- Normalised V0 (BRISC; [Inhibitor] 12.7839 μM): 0.972 and 1.143
- Normalised V0 (BRISC; [Inhibitor] 19.96 μM): 0.9311 and 1.165
- Normalised V0 (BRISC; [Inhibitor] 31.4999 μM): 0.8747 and 1.168
- Normalised V0 (BRISC; [Inhibitor] 50.147 μM): 0.908 and 1.016
- Normalised V0 (BRISC; [Inhibitor] 79.7601 μM): 0.7753 and 1.257
- Normalised V0 (BRISC; [Inhibitor] 125.99 μM): 0.9194 and 0.97
- Normalised V0 (BRISC; [Inhibitor] 199.922 μM): 0.8606 and 0.9293

Structure (SMILES): C[C@@H]1CCN(C(=O)CC#N)C[C@@H]1N(C)c1ncnc2[nH]ccc12 [tofacitinib, reference compound]
- ISRE luciferase signal in THP-1 supernatant [1]: not reduced
- ISRE luciferase signal in THP-1 supernatant ([1]; listed as Tofacitinib): 198.333 and 276 and 283.333
- ISRE luciferase reporter signal (Fig. 5a) ([2]; IFN + compound, replicate values): 1776.67 and 1732 and 1959.33 and 2178.33
- ISRE relative expression ([2]; hIFNα2 25 ng/ml, 0.4 μM, 16 h): potent effect
- percentage of live cells (THP-1 cells): 98.18%
- NF-κB SEAP reporter signal [3]: 1.232 and 1.181 and 1.209
- IFNAR1 surface levels (Fig. 5h) ([4]; IFN + compound, No IFN = 100): 59.2689 and 88.3889 and 79.9066
- IFNAR1 surface levels ([4]; THP-1, hIFNα2 25 ng/ml, 0.4 μM, 16 h): no significant reduction
- ISRE luciferase signal in THP-1 supernatant [5]: not reduced
- ISRE luciferase signal in THP-1 supernatant ([5]; listed as Tofacitinib): 199.667 and 316.333 and 317.333
